Measured values published in publication PMC3002932 (PLoS ONE, 2010).
Where two headings read alike, the source gives them in different places.

Experiments:
HIV-1 (BaL) = test: p24^gag antigen release assay in PM1 cells; assay type: cell-based; conditions: MOI = 10^−2, 0.078–5 µM, 37°C/5% CO2, p24 ELISA, day 5 represents peak infection
Experimental: The cells were washed and resuspended in fresh growth media containing vehicle or peptides for 7 days. Supernatants were collected at days 3, 5, and 7 post-infection, and on days 3 and 5 the cells were resuspended in 1 ml of growth medium containing the appropriate concentration of vehicle or peptide. HIV-1 infection was quantified by measuring the amount of p24^gag in the cell supernatants (Perkin Elmer p24 ELISA, Waltham, MA).

CCR5 (HIV-1BAL) = test: p24^gag antigen release assay using PBMCs, CCR5 strain; assay type: cell-based; conditions: PBMC based p24^gag antigen release assay
gp120LAV = gp120LAV (Human immunodeficiency virus type 1 group M subtype B, UniProt P03377); conditions: SPR, BIAcore CM5 chip, HBS-EP pH = 7.4; KD±SEM, average from at least 5 independent experiments
Experimental: (§1) Surface plasmon resonance (SPR) studies were performed on a BIAcore 3000 system (BiaCore AB, Piscataway, NJ), using BIAcore CM5 sensor chips and HBS-EP running buffer (pH = 7.4) containing 10 mM HEPES, 150 mM NaCl, 3 mM EDTA, and 0.005% polysorbate 20. Proteins/peptides were immobilized on a CM5 sensor chip using the amine coupling method. The chip was activated by mixing 400 mM N-ethyl-N-(3-dimethylaminopropyl)-carbodiimide hydrochloride and 100 mM N-hydroxysuccinimide. Residual reactive groups on the chip surface were blocked using 1.0 M ethanolamine/HCl (pH = 8.5). The flow cell-1 chamber, which served as a control, lacked immobilized protein but was treated with N-ethyl-N-(3-dimethylaminopropyl)-carbodiimide hydrochloride, N-hydroxysuccinimide, and ethanolamine/HCl. Binding signals were corrected for nonspecific binding by subtracting the flow cell-1 signal. To regenerate chip surfaces, bound ligands were removed with 10 mM HCl. Data were analyzed with BIAevaluation 4.1 software (Biacore, Piscataway, NJ).

gp41 = gp41 (Human immunodeficiency virus type 1 group M subtype B, UniProt P03375); conditions: SPR, BIAcore CM5 chip, HBS-EP pH = 7.4; KD±SEM, average from at least 5 independent experiments
Experimental: as §1

gp120BAL = test: SPR binding to gp120BAL; design: species or system HIV-1; conditions: BIAcore CM5 chip, HBS-EP pH = 7.4, KD±SEM, average from at least 5 independent experiments
[1] = tested on: gp41, gp120BAL and gp120LAV; test: SPR binding to viral glycoproteins (gp41, gp120BAL, gp120LAV); design: species or system HIV-1
[2] = tested on: human red blood cells (hRBCs); assay type: cell-based
Experimental: Heparinized fresh blood (∼3 ml) was collected from an anonymous donor. A 200 µl aliquot was removed and washed 4× with 800 µl of cold PBS at RT for 3 min at ∼500×g. After each centrifugation, 780 µl of supernatant was removed. After the last wash, the supernatant was completely removed and the packed red blood cells were diluted 1∶20 in PBS to prepare a 5% v/v stock suspension of hRBCs.
All experiments were carried out in triplicate using 96-well microplate (Costar 3596) and the OD at 700 nm was monitored every 30 s. employing the SpectraMAX 250 microplate reader (Molecular Devices, Sunnyvale, CA). Controls included PBS, untreated human RBCs, and human RBCs +2.5% Triton (100% lysis). The hemolytic effect was calculated as follows: [drawing 1]

TZM-bl cells [3] = test: Cell viability (CytoTox-Glo) in TZM-bl cells; assay type: cell-based; conditions: Figure 8
Experimental: (§2) Cell viability experiments were carried out using CytoTox-Glo™ Assay (Promega Corp., Madison, WI) and cytotoxicity was analyzed using an MTT-based cell proliferation kit (Boehringer Mannheim, Indianapolis, IN) Both tests were performed according to manufacturer's instructions. MTT is 3-(4,5-dimethylthiazol-2-yl)-2,5-diphenyltetrazolium bromide. Experiments utilizing vaginal epithelial cells (VECs) were carried out as previously described.

TZM-bl cells [4] = test: MTT reduction in TZM-bl cells; assay type: cell-based; conditions: Figure 8
Experimental: as §2

[5] = assay type: physicochemical; conditions: for Molecular weight range: 20 mM NaH2PO4, 20°C, 280 nm; for OD280 lost on centrifugation / weight-average molecular weight: 20 mM NaH2PO4
Experimental: Sedimentation equilibrium was performed at 20°C in a Beckman Optima XL-A analytical ultracentrifuge using absorption optics at 280 nm. Twelve mm path length double sector cells were used for all samples. Samples (OD280 = 0.7 and OD280 = 0.15)) were in 20 mM NaH2PO4. Sedimentation equilibrium profiles were measured at speeds of 3000, 7000, 11000, 24000 and 36000 rpm. The data were fitted with a nonlinear least-squares exponential fit for a single ideal species using the Beckman Origin-based software (Version 3.01 A partial specific volume of 0.739 was estimated from the amino acid composition using 0.9 (the partial specific volume of a leucine residue) for the partial specific volume of cyclohexylalanine and cyclohexylglycine. It was then corrected to 20°C [47].

[6] = SDS-PAGE in non-reductive conditions; assay type: physicochemical; conditions: inconclusive
[7] = NMR studies of oligomerization (data not shown); assay type: physicochemical; conditions: water, DMSO and their mixtures; limited NMR studies (data not shown)

gp41, sequence (P03375 512-856): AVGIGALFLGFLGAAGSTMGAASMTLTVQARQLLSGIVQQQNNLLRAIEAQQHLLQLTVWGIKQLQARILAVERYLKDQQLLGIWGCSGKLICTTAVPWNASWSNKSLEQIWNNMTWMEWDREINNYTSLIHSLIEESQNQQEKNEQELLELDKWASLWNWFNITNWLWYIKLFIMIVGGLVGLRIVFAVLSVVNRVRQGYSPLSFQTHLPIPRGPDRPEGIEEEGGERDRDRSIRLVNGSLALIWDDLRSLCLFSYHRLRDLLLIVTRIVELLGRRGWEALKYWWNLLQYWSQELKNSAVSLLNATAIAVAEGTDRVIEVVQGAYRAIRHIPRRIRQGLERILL

Question: Which EC50 (HIV-1 (BaL)) does the source give for “Cha-SC-Chg-R-Chg-RSGSY-Cha-DN-Chg-R-Chg-(D)Cys-CONH2 (disulfide) [GRFN-1]” here?
Answer: The EC50 was 547 ± 66.1 nM.

Question: And the “antiviral activity (in words)” value (CCR5 (HIV-1BAL))?
Answer: The value was “maintained their antiviral activity”.

Question: And the Kd (gp120LAV)?
Answer: The Kd was 2240 ± 810 nM.

Question: And the Kd (gp41)?
Answer: Its Kd is 3000 ± 1310 nM.

Question: What about the Kd (gp120BAL) of the same substance?
Answer: Its Kd is 1060 ± 220 nM.

Question: What about the “binding (in words)” value [1] of the same substance?
Answer: Its value is “binds gp41, gp120BAL and gp120LAV in a dose dependent manner”.

Question: And the Hemolysis ([2]; 2.5 µM)?
Answer: Its Hemolysis is 1.2±0.7%.

Question: And the Hemolysis ([2]; 5 µM)?
Answer: Its Hemolysis is 2.8±2.3%.

Question: And the Hemolysis ([2]; 10 µM)?
Answer: Its Hemolysis is 7.3±1.3%.

Question: And the effect on viability (TZM-bl cells [3])?
Answer: Its effect on viability is “no effect on viability”.

Question: What about the “inhibition of cellular dehydrogenase activity (MTT reduction)” value (TZM-bl cells [4]) of the same substance?
Answer: Its value is “appeared to inhibit cellular dehydrogenase activity (as gauged by MTT reduction) in a dose dependent manner”.

Question: And the Molecular weight range ([5]; 3K rpm (limited data))?
Answer: The Molecular weight range was “∼150000 Da”.

Question: What about the Molecular weight range ([5]; 7K rpm) of the same substance?
Answer: Its Molecular weight range is 68500–84700 Da.

Question: And the Molecular weight range ([5]; 11K rpm)?
Answer: Its Molecular weight range is 8950–38100 Da.

Question: What about the Molecular weight range ([5]; 24K rpm) of the same substance?
Answer: Its Molecular weight range is 2541–6200 Da.

Question: What about the Molecular weight range ([5]; 36K rpm) of the same substance?
Answer: The Molecular weight range was 2245–2940 Da.

Question: And the “OD280 lost on centrifugation” value ([5]; 3000 rpm)?
Answer: Its value is “less than 5%”.

Question: And the weight-average molecular weight ([5]; 7000 rpm, remaining heterogeneous material)?
Answer: Its weight-average molecular weight is “about 69000”.

Question: What about the “OD280 lost on centrifugation” value ([5]; 7000 rpm) of the same substance?
Answer: Its value is “Approximately two-thirds”.

Question: What about the weight-average molecular weight ([5]; early scans, after 16 hours, 3000 rpm) of the same substance?
Answer: The weight-average molecular weight was “about 150,000”.

Question: And the turbidity ([5]; initially dissolved in 20 mM NaH2PO4)?
Answer: Its turbidity is “slightly turbid solution”.

Question: And the “aggregation state (in words)” value ([5]; sedimentation equilibrium, diluted salt)?
Answer: Its value is “high molecular weight soluble aggregates with some monomer present”.

Question: What about the “apparent size of dimers” value [6] of the same substance?
Answer: The value was about 4.5 kDa.

Question: And the “oligomerization (in words)” value [7]?
Answer: Its value is “Oligomerization of GRFN-1 in various solvents (water, DMSO and their mixtures) was suggested”.
